Measured values from US12304931B2, “MENTSH analogs as therapeutics for diabetes, obesity, and their associated diseases and complications” (University of Southern California, priority 2016, dated 2025).
Ends that are not written are not given here.

Assay: Pharmacokinetics of injected peptide in mice (ELISA)
Assay type: in vivo
Conditions: ELISA detection
Description: FIG. 19. Detection of MENTSH mRNA and peptide and pharmacokinetics of injected peptide in mice. Northern blot hybridization identified the presence of MENTSH transcript in mitochondrial mRNA.
Northern blot hybridization identified the presence of MENTSH transcript in mitochondrial mRNA (FIG. 19). Further, the Inventors developed an ELISA assay for detection of MENTSH. […] Increasing persistent bioavailability of MENTSH by analogs, or other artificial modifications may further improve biological effects for therapeutic use.

With “MKPNPATQNLSMLLNYPH [MENTSH, MKPNPATQNLSMLLNYPH]” the “persistence of injected peptide” value was ~1 h.
